Read-outs that look alike come from different tables or passages of the source.
Legend:
[1] = molecular target: Cyclophilin A (CypA) (Homo sapiens (Human), UniProt P62937); assay: Cyclophilin PPIase enzymatic assay (chymotrypsin coupled), CypA; format: biochemical; conditions: for IC50: CypA
Description: (§1) Cyclophilin A, B protein carrying a hexahistidine tag (His-Tag) at the C-terminus, were expressed in Escherichia coli and purified. Briefly, cultures of C41(DE3) cells were grown at 37° C. for ˜1 h until the culture reached an optical density of 0.6 at 600 nm, and induced with 1 mM isopropyl β-D-thiogalactoside for 4 h at 37° C. or overnight at 22° C. for cylophilin A and cyclophilin B, respectively. Cell pellets (1 L) were resuspended in a lysis buffer (20 mM NaH2PO4 (pH 7.8), 300 mM NaCl, 7 mM β-mercaptoethanol, 1 mg/ml lysozyme, 0.1 U/μl Desoxyribonuclease and complete protease inhibitor tablets (Roche)). The sonicated cell lysates were clarified by centrifugation at 10 000 g for 45 min at 4° C., chromatographed on a Ni-NTA column and washed with buffer: (20 mM NaH2PO4 (pH7.8), 300 mM NaCl, 50 mM imidazole, 7 mM β-mercaptoethanol, 10% glycerol). The bound protein was eluted in 1 ml fractions with buffer: (20 mM NaH2PO4 (pH7.8), 300 mM NaCl, 250 mM imidazole, 7 mM β-mercaptoethanol, 10% glycerol) and monitored by the Bradford colorimetric assay. The purity of each cyclophilin was determined by Coomassie-stained SDS-PAGE analysis.
(§2) The reaction was initiated by adding 20 μL of 3.2 mM peptide substrate (Suc-Ala-Ala-cis-Pro-Phe-pNA) in LiCl/TFE solution with rapid inversion. […] The final concentration of LiCl in the assay was 20 mM; TFE was present at a concentration of 4% (v/v). Absorbance readings were collected every 1 s by spectrophotometer. The inhibition assays of compounds were performed in the same manner as mentioned above. A 5 μL aliquot of the compounds in DMSO was added to the cyclophilin solution in the assay buffer. The assay was started by the addition of the substrate. Cyclosporine A was used as control in all measurement. The percentage inhibition of cyclophilin PPiase activity were calculated from slopes and values obtained represent an average of at least two independent measurements.

[2] = molecular target: Cyclophilin D (CypD) (Homo sapiens, UniProt P30405, K175I); assay: Cyclophilin PPIase enzymatic assay (chymotrypsin coupled), CypD; format: biochemical
Description: The protein was expressed in E. coli strain BL21(DE3). Bacteria were grown in LB medium at 37° C. and induced during 2 h with isopropyl-β-D-thiogalactopyranoside (IPTG) around OD 0.8. Cells were lysed by sonication in a buffer consisting of 50 mM Tris at pH 7.5, 2 mM EDTA and 2 mM β-mercaptoethanol (buffer A). The lysate was centrifuged at 40000 g for 30 min. The supernatant was loaded on a Q-Sepharose and S-Sepharose columns in series equilibrated with buffer A. The S-Sepharose column was washed with equilibrium buffer and bound proteins were eluted with a linear gradient from 0 to 1M NaCl.
as §2

[3] = molecular target: Cyclophilin B (CypB) (Homo sapiens (Human), UniProt P23284); assay: Cyclophilin PPIase enzymatic assay (chymotrypsin coupled), CypB; format: biochemical; conditions: for IC50: CypB; for Inhibition (%): activity test at 100 μM on CypB
Description: as §1, §2

[4] = test system: HCV genotype 1b bicistronic replicon in Huh7 cells; assay: Antiviral activity in the replicon model; format: cell-based; conditions: Hepatitis C virus, Huh-7, 72 h
Description: HCV replicon harboring cells were seeded at a low density of 5000 cells per well in 96-well plates. The cells were treated with increasing concentrations of the tested compounds in Dulbecco modified Eagle medium containing 10% fetal bovine serum and 1% DMSO without G418 and cultured for 3 days. Total RNA was extracted using the RNeasy 96 kit (Qiagen). […] HCV RNA levels were measured by means of […]. The results were normalized to GAPDH gene. Each data point represents the average of at least three replicates in cell culture. HCV RNA level reductions after treatment were assessed by comparing the level of HCV RNA in compound-treated cells to that of control cells treated with 1% DMSO.

[5] = Acute toxicity in mice; format: in vivo; conditions: female mice, 1, 10, 50 and 150 mg/kg, one intraperitonal injection
Description: The acute toxicity of F684 was evaluated in mice. In this study, female mice (n=3/group) were administered with the negative control (PBS) or F684 (1 mg/kg, 10 mg/kg, 50 mg/kg and 150 mg/kg of body weight dissolved in PBS), one time by intraperitonal injection. At the time of injection, animals were approximately 5 month old and body weights ranged from 27 to 33 g.

[6] = activity test at 100 μM on CypA, read-out: Inhibition (%)
[7] = activity test at 100 μM on CypA
[8] = HCV genotype 1b replicon, Huh7 cells, 3 days, HCV RNA, read-out: EC50 replicon

Sequence of Cyclophilin A (CypA) (P62937 whole entry): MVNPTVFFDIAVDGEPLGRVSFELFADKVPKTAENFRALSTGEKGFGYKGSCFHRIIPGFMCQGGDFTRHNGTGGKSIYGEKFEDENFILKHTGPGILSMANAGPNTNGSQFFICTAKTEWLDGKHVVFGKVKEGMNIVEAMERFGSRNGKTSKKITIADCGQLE
Sequence of Cyclophilin D (CypD) (P30405 30-207 K175I limits assumed): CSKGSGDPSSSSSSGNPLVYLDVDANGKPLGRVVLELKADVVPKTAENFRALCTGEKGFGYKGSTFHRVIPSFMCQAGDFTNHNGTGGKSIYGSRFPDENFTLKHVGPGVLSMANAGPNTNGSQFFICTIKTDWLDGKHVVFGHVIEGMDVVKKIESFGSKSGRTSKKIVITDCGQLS
Sequence of Cyclophilin B (CypB) (P23284 34-216): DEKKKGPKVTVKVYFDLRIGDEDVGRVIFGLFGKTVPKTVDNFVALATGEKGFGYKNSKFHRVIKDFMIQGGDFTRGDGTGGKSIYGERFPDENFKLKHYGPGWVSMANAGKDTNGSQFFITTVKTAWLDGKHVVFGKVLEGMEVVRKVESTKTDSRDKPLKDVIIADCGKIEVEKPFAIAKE

`Nc1ccc(CNC(=O)NCC(=O)N2CCOC(CN3C(=O)c4ccccc4C3=O)C2)cc1` (centres unmarked) [Compound F554, 1-(4-aminobenzyl)-3-(2-(2-((1,3-dioxoisoindolin-2-yl)methyl)morpholino)-2-oxoethyl)urea] gave an inhibition at 100 µM [1, 6] of 67.2%, an inhibition at 100 µM [2] of 20.9% and an inhibition at 100 µM [3] of 70.9%. The IC50 [3] was 24.6 µM.

With `CCOC(=O)C(Cc1cccc(OCc2ccccc2)c1)NC(=O)NCc1ccc(N)cc1` (centres unmarked) [Compound F611, ethyl 2-(3-(4-aminobenzyl)ureido)-3-(3-(benzyloxy)phenyl)propanoate] the inhibition at 100 µM [1, 6] was 72.8% and the inhibition at 100 µM [3] was 73.3%.

Compound `Nc1ccc(CNC(=O)NCC(=O)NCCc2ccccc2)cc1` [Compound F547, 2-(3-(4-aminobenzyl)ureido)-N-2-phenyl-ethylacetamide] has an inhibition at 100 µM [1, 6] of 22.5% and an inhibition at 100 µM [3] of 15.2%.

In the case of `CSc1ccccc1C1CCCN1C(=O)C(C)NC(=O)NCc1ccc(N)cc1` (centres unmarked) [Compound F714, 1-(4-aminobenzyl)-3-(1-(2-(2-(methylthio)phenyl)pyrrolidin-1-yl)-1-oxopropan-2-yl)urea], the IC50 [1] is reported as 3.1 µM and the IC50 [2] is reported as 1.1 µM.

In the case of “2-(3-(3-acetamidobenzyl)ureido)acetate [Compound F566]”, the “Inhibition (%)” value ([2]; activity test at 100 μM on CypD) is reported as 22.7% and the “Inhibition (%)” value [3] is reported as 26.5%.

`CCOC(=O)CNC(=O)NCc1cccc(N)c1` [Compound F549, ethyl 2-(3-(3-aminobenzyl)ureido)acetate] showed an inhibition at 100 µM [1, 6] of 14.8%, an inhibition at 100 µM [2] of 24.5% and an inhibition at 100 µM [3] of 48.9%.

Compound `Nc1ccc(CNC(=O)NCC(=O)N2CCOCC2)cc1` [Compound F544, 1-(4-aminobenzyl)-3-(2-morpholino-2-oxoethyl)urea] has an inhibition at 100 µM [1, 6] of 12.2% and an inhibition at 100 µM [3] of 26%.

Work on `COc1ccc(N(C)C(=O)CNC(=O)NCc2ccc(N)cc2)cc1` [Compound F555, 2-(3-(4-aminobenzyl)ureido)-N-4-methoxyphenyl-N-methylacetamide] yielded an inhibition at 100 µM [1, 6] of 65.1% and an inhibition at 100 µM [2] of 26.1%.

In the case of `Nc1ccc(CNC(=O)NCC(=O)N2CCCCC2)cc1` [Compound F543, 1-(4-aminobenzyl)-3-(2-oxo-2-(piperin-1-yl)ethyl)urea], the “Inhibition (%)” value [1, 7] is reported as 27.7% and the “Inhibition (%)” value [3] is reported as 37.5%.

In the case of `Nc1ccc(CNC(=O)NCC(=O)N2CCCCC2C(=O)N2CCCC2)cc1` (centres unmarked) [Compound F542], the “Inhibition (%)” value [1, 7] is reported as 60.1%, the IC50 [3] is reported as 36.6 µM and the “Inhibition (%)” value [3] is reported as 58.5%.

In the case of `CCN(O)C(=O)CNC(=O)NCc1ccc(N)nc1` [Compound F606, 2-(3-((6-aminopyridin-3-yl)methyl)ureido)-N-hydroxy-N-ethylacetamide], the inhibition at 100 µM [1, 6] is reported as 18.9% and the inhibition at 100 µM [3] is reported as 17.3%.

`Nc1ccc(CNC(=O)NCC(=O)N2CCCC2c2ccccc2Cl)cc1` (centres unmarked) [Compound F673, 1-(4-aminobenzyl)-3-(2-(2-(2-chlorophenyl)pyrrolidin-1-yl)-2-oxoethyl)urea] showed an IC50 [1] of 3.4 µM and an IC50 [2] of 6.2 µM.

For `CSc1ccccc1C1CCCN1C(=O)CNC(=O)NCc1ccc(N)cc1` (centres unmarked) [Compound F684, 1-(4-aminobenzyl)-3-(2-(2-(2-(methylthio)phenyl)pyrrolidin-1-yl)-2-oxoethyl)urea], the EC50 ([4]; read-out: EC50 replicon (μM)) was 0.8 µM, the IC50 [1] was 0.37 µM and the IC50 [2] was 0.64 µM. For the same compound, the acute toxicity [5] was “not acutely toxic”, the “body weights, feed consumption, clinical observations or gross organ necropsy vs vehicle control” value [5] was “No differences” and the survival [5] was “All animals survived to scheduled sacrifice”. It also gave an IC50 [3] of 0.65 µM.

For `COc1ccccc1C1CCCN1C(=O)CNC(=O)NCc1ccc(N)cc1` (centres unmarked) [Compound F609, 1-(4-aminobenzyl)-3-(2-(2-(2-methoxyphenyl)pyrrolidin-1-yl)-2-oxoethyl)urea], the EC50 [4, 8] was 20 µM, the inhibition at 100 µM [1] was 100% and the IC50 [1] was 2.8 µM. The IC50 [2] was 11.4 µM, the inhibition at 100 µM [3] was 101% and the IC50 [3] was 1.2 µM.

`CCOC(=O)CNC(=O)NCC1CCNCC1` [Compound F509, ethyl 2-(3-(piperidin-4-ylmethyl)ureido)acetate] showed an inhibition at 100 µM [2] of 18.3%.

For `Nc1ccc(CNC(=O)Nc2cnc3sccn3c2=O)cc1` [Compound F608, 1-(4-aminobenzyl)-3-(5-oxo-5H-thiazolo[3,2-a]pyrimidin-6-yl)urea], the inhibition at 100 µM [1, 6] was 26.3% and the inhibition at 100 µM [3] was 38.7%.

Compound `Nc1ccc(CNC(=O)NCC(=O)N2CCCC2)cc1` [Compound F537, 1-(4-aminobenzyl)-3-(2-pyrrolidin-1-yl-2-oxoethyl)urea] has an inhibition at 100 µM [1] of 33.4% and an inhibition at 100 µM [3] of 24.5%.

Compound `CCOC(=O)C1CCCN(C(=O)CNC(=O)NCc2ccc(N)cc2)C1` (centres unmarked) [Compound F545, ethyl 1-(2-(3-(4-aminobenzyl)ureido)acetyl)piperidine-3-carboxylate] has an inhibition at 100 µM [1, 6] of 49.2%, an inhibition at 100 µM [3] of 65.7% and an IC50 [3] of 75.1 µM.

`CSc1ccccc1C1CCCN1C(=O)C(CC(C)C)NC(=O)NCc1ccc(N)cc1` (centres unmarked) [Compound F712, 1-(4-aminobenzyl)-3-(4-methyl-1-(2-(2-(methylthio)phenyl)pyrrolidin-1-yl)-1-oxopentan-2-yl)urea] gave an IC50 [1] of 3.3 µM and an IC50 [2] of 3 µM.

In the case of `CCN(OCc1ccccc1)C(=O)CNC(=O)NCc1ccc(N)cc1` [Compound F607], the IC50 [1] is reported as 9 µM, the IC50 ([2]; CypD, read-out: CypD IC50) is reported as 30 µM and the IC50 [3] is reported as 4.8 µM. For the same compound, the “Inhibition (%)” value [3] was 95.3%.

With `CCOC(=O)CNC(=O)NCc1ccc(OC)cc1` [Compound F429, ethyl 2-(3-(4-methoxybenzyl)ureido)acetate] the inhibition at 1000 µM [2] was 42.1%.

With `CCOC(=O)C(Cc1cccc(O)c1)NC(=O)NCc1ccc(N)cc1` (centres unmarked) [Compound F612, ethyl 2-(3-(4-aminobenzyl)ureido)-3-(3-hydroxyphenyl)propanoate] the inhibition at 100 µM [1, 6] was 26.3% and the inhibition at 100 µM [3] was 26.7%.

Compound `CCOC(=O)CNC(=O)NCc1cccc(OC)c1` [Compound F512, ethyl 2-(3-(3-methoxybenzyl)ureido)acetate] has an inhibition at 100 µM [2] of 26.5% and an inhibition at 100 µM [3] of 16.6%.

In the case of `CCOC(=O)CNC(=O)NCc1cccc(F)c1` [Compound F511, ethyl 2-(3-(3-fluorobenzyl)ureido)acetate], the inhibition at 100 µM [2] is reported as 12.9%.

Work on `CN(C(=O)CNC(=O)NCc1ccc(N)cc1)c1ccccc1` [Compound F557, 2-(3-(4-aminobenzyl)ureido)-N-phenyl-N-methylacetamide] yielded an inhibition at 100 µM [1, 6] of 63.4% and an inhibition at 100 µM [2] of 42.9%.

Work on `CCOC(=O)CNC(=O)NCc1ccc(O)c(O)c1` [Compound F548, ethyl 2-(3-(3,4-dihydroxybenzyl)ureido)acetate] yielded an inhibition at 100 µM [2] of 25.5% and an inhibition at 100 µM [3] of 20.8%.

Work on `Nc1ccc(CNC(=O)NCC(=O)N2CCCC2c2cccc3ccccc23)cc1` (centres unmarked) [Compound F671, 1-(4-aminobenzyl)-3-(2-(2-(naphthalen-1-yl)pyrrolidin-1-yl)-2-oxoethyl)urea] yielded an EC50 [4, 8] of 4.3 µM, an IC50 [1] of 1.5 µM and an IC50 [2] of 1.4 µM.
